Reference: paper PMC7619385 (ACS infectious diseases, 2025)
Where two headings read alike, the source gives them in different places.

Tests used:
[1] = system: L. mexicana promastigotes; assay: Promastigote viability (Alamar Blue/resazurin); format: cell-based; conditions: Leishmania mexicana
Procedure: Next, we evaluated GZD824 ability to reduce the viability of L. mexicana promastigotes by monitoring the reduction of resazurin (Alamar Blue).[31]
L. mexicana (strain MNYC/BZ/62/M379) promastigotes were cultivated in medium 199 (M199) (Earle’s Salts - Gibco) supplemented with 10% (v/v) heat-inactivated fetal calf serum (HIFCS – Cultilab) and 1% Penicillin/Streptomycin solution (Sigma-Aldrich) at 26 °C. Phenotypic drug response assays in null mutant and point-mutation mutant lines were performed in HOMEM supplemented with 10% (v/v) heat-inactivated fetal calf serum (HIFCS – Gibco). THP-1 monocytes were differentiated in adherent macrophages with 50 ng of PMA for 72 h at 37 °C and 5% CO2 before infection with stationary phase promastigotes (ratio 10 promastigotes:1 macrophage) for 6 h, followed by washing to remove non-internalized Leishmania. Infected macrophages were incubated at 34 °C and 5% CO2 for 48 h in RPMI (Gibco) supplemented with 10% HIFCS and 1% Penicillin/Streptomycin solution.
For evaluation of drug effect on promastigote and uninfected macrophage viability, cells were cultivated in the presence of test compounds for 24 h and incubated with 10% AlamarBlue™ Cell Viability Reagent (ThermoFisher) for 24 h before measuring fluorescence at λex 540 nm/λem 590 nm. Untreated cells (1% DMSO) were set as 100 % viable cells. Intracellular amastigotes were treated with compounds for 48 h. Slides with paraformaldehyde-fixed and DAPI-stained cells were imaged on a Zeiss AxioImager microscope – at least 200 macrophages per drug concentration and DMSO control. Experiments were performed in duplicate. The total number of amastigotes was normalized by the number of macrophages counted. For EC50 determination, the data was fitted to the sigmoidal dose-response (variable slope) equation in GraphPad Prism (v.9.1.0).

[2] = system: L. mexicana intracellular amastigotes; assay: Intracellular amastigote viability in THP-1 macrophages (DAPI counting); format: cell-based; conditions: Leishmania mexicana, macrophage-internalized amastigotes, 48 h
Procedure: L. mexicana (strain MNYC/BZ/62/M379) promastigotes were cultivated in medium 199 (M199) (Earle’s Salts - Gibco) supplemented with 10% (v/v) heat-inactivated fetal calf serum (HIFCS – Cultilab) and 1% Penicillin/Streptomycin solution (Sigma-Aldrich) at 26 °C. […] THP-1 monocytes were differentiated in adherent macrophages with 50 ng of PMA for 72 h at 37 °C and 5% CO2 before infection with stationary phase promastigotes (ratio 10 promastigotes:1 macrophage) for 6 h, followed by washing to remove non-internalized Leishmania. Infected macrophages were incubated at 34 °C and 5% CO2 for 48 h in RPMI (Gibco) supplemented with 10% HIFCS and 1% Penicillin/Streptomycin solution.

[3] = system: T790M mutant form of EGFR; conditions: cited from earlier work
[4] = system: L. mexicana T7/Cas9 Δclk1, Δclk2 and Cys172Ala LmxCLK1 lines; assay: Viability of T7/Cas9 null mutant and cysteine point-mutant lines; format: cell-based, Leishmania mexicana; conditions: 96 h, versus parental T7/Cas9 line
Description: Data represent mean ± SD of four independent experiments performed in triplicate. […] Data represent mean ± SD of two independent experiments performed in duplicate. […] Data represent mean ± SD of two independent experiments performed in triplicate. […] Values are mean ± SEM.

[5] = system: LmxCLK1-overexpressing L. mexicana; assay: microbe, parasite or virus in culture; format: cell-based, Leishmania mexicana
[6] = system: THP-1-derived macrophages; conditions: human, 24 h, 100 µM
Procedure: For evaluation of drug effect on promastigote and uninfected macrophage viability, cells were cultivated in the presence of test compounds for 24 h and incubated with 10% AlamarBlue™ Cell Viability Reagent (ThermoFisher) for 24 h before measuring fluorescence at λex 540 nm/λem 590 nm. Untreated cells (1% DMSO) were set as 100 % viable cells. […] Experiments were performed in duplicate.

[7] = 48 h compound exposure, read-out: EC50 promastigote viability

SMILES	EC50 [1, 7] [µM]	EC50 [2] [µM]	Selectivity for T790M mutant EGFR compared to wild-type enzyme [3]	Sensitivity of Δclk1 line [4]	EC50 ([5]; Leishmania mexicana, read-out: EC50 LmxCLK1-overexpressing parasites) [µM]	Reduction of parasite sensitivity by LmxCLK1 overexpression ([5]; compared to wild-type parasites)	Reduction in macrophage viability [6]	EC50 ([1]; wild-type comparator of the overexpression experiment (Figure 6D), read-out: EC50 wild-type parasites) [µM]
Cc1ccc(C(=O)Nc2ccc(CN3CCN(C)CC3)c(C(F)(F)F)c2)cc1C#Cc1cnc2[nH]ncc2c1 [GZD824]	33							
C=CC(=O)Nc1cccc(Sc2nc(Nc3ccc(N4CCN(C)CC4)cc3)ncc2Cl)c1 [WZ8040]	7.9	2.1	over 10 fold	significantly enhanced sensitivity	17.6	approximately 3 fold	~ 15%	5.6
